Key:
[1] = test system: import of hSIRT3 into isolated mammalian mitochondria; test: Import of radiolabeled hSIRT3 into isolated mitochondria; conditions: antimycin 8 μM, oligomycin 20 μM and valinomycin 1 μM added together to dissipate the transmembrane potential
Method: Import into isolated mitochondria was carried out as previously reported (22). Proteins were synthesized in the presence of [^35S]-methionine by coupled transcription-translation in reticulocyte lysate (Promega, Madison, Wis.) (23). In vitro translation reactions were centrifuged at 108,000×g, 2° C. for 15 min and adjusted to 250 mM sucrose. Import reactions contained 5% (v/v) reticulocyte lysate in import buffer (3% (w/v) fatty-acid free bovine serum albumin (BSA), 250 mM sucrose, 80 mM KCl, 5 mM MgCl2, 2 mM KH2PO4, 5 mM L-methionine, 10 mM 3-[N-morpholino]propanesulfonic acid-KOH, pH 7.2). In each import reaction, 50 μg of freshly isolated mammalian mitochondria were mixed with radiolabeled proteins and incubated at 30° C. ATP (2 mM) and sodium succinate (10 mM) were added to maintain coupling of isolated mitochondria. Import was stopped by addition of valinomycin (1 μM) and transfer to 0°C.
Where indicated, samples were treated with proteinase K (50 μg/ml) for 10 min on ice. Protease treatment was stopped by addition of 2 mM phenylmethylsulfonyl fluoride (PMSF). Mitochondria were reisolated by centrifugation at 10,000×g for 5 min at 4° C., washed in SEM buffer and recentrifuged as above. Mitochondrial pellets were resuspended in SDS sample buffer containing dithiothreitol (DTT) and heated to 95° C. for 5 min. Samples were subjected to SDS-PAGE. Dried gels were exposed to Biomax MR film (Kodak, Rochester, N.Y.) at −70° C. and analyzed on a Fuji FUJIX BAS 1000 phosphorimager. […]
FIG. 4. […] After reisolation of mitochondria and SDS-PAGE, the amounts of imported proteins were quantified by phosphorimaging. FIG. 4B, Quantitation of imported protein by phosphorimaging. […] Reisolated and washed mitochondria were lysed in SDS sample buffer and analyzed by SDS-PAGE. […] FIG. 4E, Import efficiency of individual hSIRT3 mutants was quantitated in relation to their standards by phosphorimaging. […]

[2] = target: T1, hSIRT3 (Homo sapiens, UniProt Q9NTG7); test: In vitro deacetylase assay on mitochondrial lysates of hSIRT3-transfected cells; assay type: biochemical; conditions: lysates of hSIRT3-transfected HEK293T cells, compared with untransfected lysates
T1 construct: proteolytically cleaved by mitochondrial matrix processing peptidase (MPP) between residues Ser101 and Ilel02; expressed in transfected cells; host or cells: HEK293T cells, mitochondrial lysate in TXIP-1 buffer
T1 sequence (Q9NTG7 102-399 limits assumed): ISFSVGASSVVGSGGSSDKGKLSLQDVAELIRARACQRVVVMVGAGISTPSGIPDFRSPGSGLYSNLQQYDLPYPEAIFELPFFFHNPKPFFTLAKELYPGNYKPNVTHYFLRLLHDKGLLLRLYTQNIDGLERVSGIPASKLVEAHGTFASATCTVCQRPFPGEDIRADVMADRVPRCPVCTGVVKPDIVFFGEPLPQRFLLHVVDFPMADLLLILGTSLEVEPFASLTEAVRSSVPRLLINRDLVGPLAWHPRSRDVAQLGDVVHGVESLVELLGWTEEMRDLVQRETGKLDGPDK
Method: (§1) Deacetylase assays were performed in a total volume of 100 μl SIRT deacetylase buffer (4 mM MgCl2, 0.2 mM dithiothreitol, 50 mM Tris-HCl, pH 9.0) containing immunoprecipitated proteins or mitochondrial lysates and a peptide corresponding to the first the first 22 amino acids of histone 4 chemically acetylated in vitro (27). Where indicated, 1 mM NAD, 5 mM nicotinamide (both from Sigma, St. Louis, Mo.) or 400 nM TSA (WAKO, Richmond, Va.) were added. Deacetylation reactions were stopped after 2 hours of incubation at room temperature by adding 25 μl stop solution (0.1 M HCl, 0.16 M acetic acid). Released acetate was extracted into 500 μl ethyl acetate and samples were vigorously shaken for 15 minutes. After centrifugation for 5 minutes, 400 μl of the ethyl acetate fraction was mixed with 5 ml scintillation fluid (Packard, Meriden, Conn.) and the released radioactivity was measured using a liquid scintillation counter.
In vitro deacetylase activities of equal amounts of mitochondrial lysate are shown.

[3] = test system: NAD-dependent deacetylase activity in human mitochondrial fractions prepared from HEK293T cells; test: In vitro deacetylase assay on mitochondrial lysates, acetylated histone H4 peptide; conditions: NAD 1 mM, 2 hrs
Method: as §1
Mitochondrial lysates were prepared from HEK293T cells and protein content was determined. […] Samples were incubated for 2 hrs at 25° C.

Molecule | effect on import of hSIRT3 across the mitochondrial membrane [1] | also measured
CC(C)[C@@H]1NC(=O)[C@H](C)OC(=O)[C@@H](C(C)C)NC(=O)[C@@H](C(C)C)OC(=O)[C@H](C(C)C)NC(=O)[C@H](C)OC(=O)[C@@H](C(C)C)NC(=O)[C@@H](C(C)C)OC(=O)[C@H](C(C)C)NC(=O)[C@H](C)OC(=O)[C@@H](C(C)C)NC(=O)[C@@H](C(C)C)OC1=O [valinomycin] | inhibited | 
CC(/C=C/C(=O)NO)=C\[C@@H](C)C(=O)c1ccc(N(C)C)cc1 [TSA, trichostatin A] |  | sensitivity of deacetylase activity of mitochondrial lysates overexpressing hSIRT3 [2]: same properties as untransfected mitochondrial lysates; effect on NAD-dependent deacetylase activity of mitochondrial lysate ([3]; TSA 400 nM): no effect
antimycin | inhibited | 
CC[C@H]1/C=C/C=C/C[C@@H](C)[C@H](O)[C@@](C)(O)C(=O)[C@@H](C)[C@H](O)[C@@H](C)C(=O)[C@@H](C)[C@H](O)[C@@H](C)/C=C/C(=O)O[C@@H]2[C@H](C)[C@H](CC1)O[C@]1(CC[C@H](C)[C@H](C[C@@H](C)O)O1)[C@H]2C [oligomycin] | inhibited | 
NC(=O)c1cccnc1 [nicotinamide] |  | effect on NAD-dependent deacetylase activity of mitochondrial lysate ([3]; nicotinamide 5 mM): suppressed
